Test results taken from patent publication US8008319B2, “Treatment of colorectal polyps with imidazoquinoline derivatives” (Meda Pharma GmbH & Co. KG, priority 2008, dated 2011).

Columns and labels:
[1] = test system: MC-26 colon carcinoma; conditions: mice; oral treatment; cited from earlier work
[2] = test system: p53 expression in Caco-2 cells; assay: p53 mRNA expression in Caco-2 cells by quantitative real-time RT-PCR; format: cell-based
Method: Imiquimod was dissolved in dimethyl sulfoxide (DMSO). Stock concentration was 10 mg/ml. From these stocks stepwise dilutions were prepared. […] The final concentration of DMSO was 0.1%.
The colorectal adenocarcinoma cell line Caco-2 was obtained from ATCC [American Type Culture Collection], Wesel, Germany. The cells were plated in 24-well plates (BD Bioscience, Heidelberg, Germany). The cells were cultured in DMEM supplemented with 10% heat-inactivated foetal bovine serum and 10% non essential amino acids in a humidified atmosphere containing 5% CO2 at 37° C. When confluent, the cells were washed and resuspended in serum-free Dulbecco's Modified Eagle Medium (DMEM) at 10^6 cells ml^−1. […]
RNA was prepared from frozen lysates using RNeasy, Qiagen (Hilden, Germany). One-tube Reverse Transcriptase-Polymerase Chain Reaction (RT-PCR) was performed using Quantitect Probe RT-PCR Kit from QIAGEN (Hilden, Germany). Expression of p53 was determined in relation to beta-actin by real time RT-PCR using SYBR Green assays on an ABI Prism 7900. […] Quantity of mRNA was calculated using […] method. For each RT-PCR the threshold cycle (CT) was determined, being defined as the cycle at which the fluorescence exceeds 10 times the standard deviation of the mean baseline emission for cycles 3 to 10. β-actin was used as a housekeeping gene to normalize mRNA levels: Ct (Parameter)−Ct (β-actin)=ΔCt (Parameter). […]

[3] = test system: p53; conditions: patients with Actinic Keratoses; under imiquimod therapy; cited from earlier work

In the case of CC(C)Cn1cnc2c(N)nc3ccccc3c21 [imiquimod, 1-(2-methylpropyl)-1H-imidazo[4,5-c]quinolin-4-amine], the “development of MC-26 colon carcinoma” value [1] is listed as “significantly inhibited the development of MC-26 colon carcinoma”, the “statistical significance of increase in p53 mRNA levels” value ([2]; 10 and 100 μM imiquimod, one-way ANOVA with Dunnett's post-hoc) is listed as “reached statistical significance” and the “p53 mRNA expression (relative to beta-actin and vehicle control)” value ([2]; concentrations up to 100 μM, FIG. 1) is listed as “increases p53 mRNA expression dose dependently”. For the same molecule, the “gene expression for p53” value [3] was “no differences in gene expression for p53 were found”.
